Like-named read-outs stand apart in the source and are kept apart here.
How the values were obtained:
[1] = tested on: human ovarian teratocarcinoma xenograft PA-1; assay: Human tumor xenograft model in mice: PA-1 (combination with carboplatin); format: in vivo
[2] = tested on: ALL-SIL T-cell lymphoblastic leukemia; assay: Human tumor xenograft model in mice: ALL-SIL (combination with dasatinib); format: in vivo; conditions: for Tumor Growth Delay / Tumor Growth Delay (LCK): target tumor size 1000 mg
[3] = tested on: human T-ALL leukemia xenografts HPB-ALL; assay: Human tumor xenograft model in mice: HPB-ALL (combination with dexamethasone); format: in vivo; conditions: for Tumor Growth Delay / Tumor Growth Delay (LCK): target tumor size 3000 mg
[4] = tested on: Notch 1; assay: Notch-CBF1 Transactivation Assay (Notch 1); format: cell-based
Description: (§1) Table 12 denotes respective DNA quantity for the transfections.
(§2) Duplicates were used for each sample.

[5] = tested on: Notch 3; assay: Notch-CBF1 Transactivation Assay (Notch 3); format: cell-based
Description: as §1, §2

[6] = High Throughput (HT) Metabolic Stability Panel, human liver microsomes
Procedure: (§3) Each compound was tested in duplicate.

[7] = High Throughput (HT) Metabolic Stability Panel, mouse liver microsomes
Procedure: as §3

[8] = tested on: TALL1 Human T-cell acute lymphoblastic leukemia; assay: Human tumor xenograft model in mice: TALL1; format: in vivo; conditions: for Antitumor Activity TALL1 (LCK): oral, QD × 15, 10 Day-on-2 Day-off
[9] = tested on: human breast carcinoma cell line MDA-MB-157; assay: Human tumor xenograft model in mice: MDA-MB-157; format: in vivo; conditions: for Antitumor Activity MDA-MB-157 (% TGI): oral, QD × 15, 10 Day-on-2 Day-off
[10] = tested on: MDA-MB-468 Human Breast Carcinoma; assay: Human tumor xenograft model in mice: MDA-MB-468 (combination with paclitaxel); format: in vivo; conditions: for Tumor Growth Delay / Tumor Growth Delay (LCK): target tumor size 500 mg; for Antitumor Activity MDA-MB-468 (% TGI): oral, QD × 15, 10 Day-on-2 Day-off
[11] = tested on: ER receptor positive human breast carcinoma xenograft MCF7; assay: Human tumor xenograft model in mice: MCF7 (combination with Tamoxifen); format: in vivo; conditions: for Tumor Growth Inhibition TGI: target tumor size 500 mg
[12] = tested on: human tumor xenografts; assay: Human Tumor Xenograft Models in Mice (various tumors); format: in vivo; conditions: for Antitumor Activity (% TGI): PO, QD × 15, 10 day-on-2 day-off, 5-10 mg/kg/adm; for antitumor activity: oral administration (PO)
[13] = Dexamethasone 3.75 mg/kg IP, QD x 14
[14] = Example 1 3.75 mg/kg PO, QD x 3, weekly x 7
[15] = Example 1 […] PO, QD x 3, weekly x 7
[16] = Example 1 3.75 mg/kg PO, QD ×3, weekly ×3
[17] = Example 1 3.75 mg/kg PO, QD x 3, weekly x 3
[18] = Example 1 […] PO, QD x 3, weekly x 3
[19] = Example 1 1 mg/kg PO, QD x 21, target tumor size 500 mg
[20] = read-out: Notch 1 (IC50), HeLa cells, luciferase, rounded to 2 digits
[21] = read-out: Notch 3 (IC50), HeLa cells, luciferase, rounded to 2 digits
[22] = 0.5 μM compound, human liver microsomes, 10 min incubation
[23] = 0.5 μM compound, mouse liver microsomes, 10 min incubation
[24] = Paclitaxel 12 mg/kg IV, Q7D x 6
[25] = Tamoxifen 20 mg/kg IP, Q2D × 10

SMILES: N.N.O=C([O-])C1(C(=O)[O-])CCC1.[Pt+2] [Carboplatin, carboplatin, reference compound]
- antitumor effect (LCK) ([1]; carboplatin weekly, 90 mg/kg/adm): 2.1 LCK

SMILES: Cc1nc(Nc2ncc(C(=O)Nc3c(C)cccc3Cl)s2)cc(N2CCN(CCO)CC2)n1 [Dasatinib, dasatinib, reference compound]
- CR (%) ([2]; Dasatinib 10 mg/kg PO, QD x 49): 0%
- PR (%) ([2]; Dasatinib 10 mg/kg PO, QD x 49): 0%
- Tumor Growth Delay ([2]; Dasatinib 10 mg/kg PO, QD x 49): 30.2 days
- Tumor Growth Delay (LCK) ([2]; Dasatinib 10 mg/kg PO, QD x 49): 1.7 LCK
- antitumor effect (LCK) ([2]; dasatinib alone, 10 mg/kg/adm, QD×49, PO): 1.7 LCK

SMILES: C[C@@H]1C[C@H]2[C@@H]3CCC4=CC(=O)C=C[C@]4(C)[C@@]3(F)[C@@H](O)C[C@]2(C)[C@@]1(O)C(=O)CO [Dexamethasone, dexamethasone, reference compound]
- CR (%) [3, 13]: 0%
- PR (%) [3, 13]: 0%
- Tumor Growth Delay [3, 13]: 5.6 days
- Tumor Growth Delay (LCK) [3, 13]: 0.6 LCK
- Tumor Growth Delay ([3]; Dexamethasone […] IP, QD x 14): 5.8 days
- Tumor Growth Delay (LCK) ([3]; Dexamethasone […] IP, QD x 14): 0.7 LCK
- antitumor efficacy (LCK) ([3]; dexamethasone as a single agent at its MTD of 7.5 mpk): 0.7 LCK

SMILES: CN1C(=O)[C@@H](NC(=O)[C@H](CCC(F)(F)F)[C@H](CCC(F)(F)F)C(N)=O)N=C(c2ccccc2)c2ccccc21 [Example 1, (2R,3S)—N-((3S)-1-Methyl-2-oxo-5-phenyl-2,3-dihydro-1H-1,4-benzodiazepin-3-yl)-2,3-bis(3,3,3-trifluoropropyl)succinamide]
- IC50 ([4]; HeLa cells, luciferase, rounded to 2 digits, read-out: Notch 1 (IC50)): 1.6 nM
- IC50 ([5]; HeLa cells, luciferase, rounded to 2 digits, read-out: Notch 3 (IC50)): 3.4 nM
- 0.5 μM HLM (% Remaining) ([6]; human, microsomes, 10 min, 0.5 µM, pH 7.4): 97%
- 0.5 μM MsLM (% Remaining) ([7]; mouse, microsomes, 10 min, 0.5 µM, pH 7.4): 91%
- Antitumor Activity TALL1 (LCK) ([8]; 7.5-10 mg/kg): >4.7 LCK
- Antitumor Activity (% TGI) ([8]; TALL1, T-Cell acute lymphoblastic leukemia, PO, QD × 15, 10 day-on-2 day-off, 5-10 mg/kg/adm): 112 % TGI
- antitumor activity ([8]; intravenous route (IV), FIG. 6: TALL1, 5 mg/kg/adm, QD×3, IV): exhibited antitumor activity
- Antitumor Activity MDA-MB-157 (% TGI) ([9]; 7.5-10 mg/kg): 89 % TGI
- Antitumor Activity (% TGI) ([9]; MDA-MB157, TN breast cancer, PO, QD × 15, 10 day-on-2 day-off, 5-10 mg/kg/adm): 81 % TGI
- CR (%) [2, 14]: 0%
- PR (%) [2, 14]: 0%
- Tumor Growth Delay [2, 14]: 8.7 days
- Tumor Growth Delay (LCK) [2, 14]: 0.5 LCK
- Tumor Growth Delay [2, 15]: 1.9 days
- Tumor Growth Delay (LCK) [2, 15]: 0.1 LCK
- complete response (CR) ([2]; single agent): none of the single agent produced CR
- CR (%) [10, 14]: 0%
- PR (%) [10, 14]: 0%
- Tumor Growth Delay [10, 14]: 7.8 days
- Tumor Growth Delay (LCK) [10, 14]: 0.5 LCK
- Tumor Growth Delay [10, 15]: 21.2 days
- Tumor Growth Delay (LCK) [10, 15]: 1.4 LCK
- Antitumor Activity (% TGI) ([10]; MDA-MB468, TN breast cancer, single agent, PO, QD × 15, 10 day-on-2 day-off, 5-10 mg/kg/adm): 91 % TGI
- Antitumor Activity MDA-MB-468 (% TGI) ([10]; single agent, 7.5-10 mg/kg): 78 % TGI
- CR (%) [11, 16]: 0%
- PR (%) [11, 16]: 0%
- Tumor Growth Inhibition TGI [11, 16]: 43%
- Tumor Growth Inhibition TGI ([11]; Example 1 […] PO, QD ×3, weekly ×3): 58%
- Antitumor Activity (% TGI) ([11]; MCF7, estrogen-dependent breast cancer, single agent, PO, QD × 15, 10 day-on-2 day-off, 5-10 mg/kg/adm): 73 % TGI
- CR or PR ([11]; single agent): no CR or PR
- CR (%) [3, 17]: 0%
- PR (%) [3, 17]: 0%
- Tumor Growth Delay [3, 17]: 7.8 days
- Tumor Growth Delay (LCK) [3, 17]: 0.9 LCK
- Tumor Growth Delay [3, 18]: 9.5 days
- Tumor Growth Delay (LCK) [3, 18]: 1.1 LCK
- antitumor efficacy (LCK) ([3]; Example 1 as a single agent at 7.5 mpk): 1.1 LCK
- CR (%) ([1]; Example 1 1 mg/kg PO, QD x 21): 0%
- Cure (%) ([1]; Example 1 1 mg/kg PO, QD x 21): 0%
- PR (%) ([1]; Example 1 1 mg/kg PO, QD x 21): 0%
- Tumor Growth Delay [1, 19]: 4 days
- Tumor Growth Delay (LCK) [1, 19]: 0.2 LCK
- antitumor effect (LCK) ([1]; Example 1 as a single agent, 1 mg/kg/adm): 0.2 LCK
- Antitumor Activity (% TGI) ([12]; BT-474, HER2+ breast cancer): 96 % TGI
- Antitumor Activity (% TGI) ([12]; Calu-6, Non small cell lung cancer): 81 % TGI
- Antitumor Activity (% TGI) ([12]; G292, osteogenic sarcoma): 75 % TGI
- Antitumor Activity (% TGI) ([12]; HCT116, colon cancer): 75 % TGI
- Antitumor Activity (% TGI) ([12]; MCF7i, estrogen-independent breast cancer): 63 % TGI
- Antitumor Activity (% TGI) ([12]; Pat-21/Abx R, TN breast cancer (abx R)): 73 % TGI
- Antitumor Activity (% TGI) ([12]; Pat-24, pancreatic cancer): 111 % TGI
- Antitumor Activity (% TGI) ([12]; Pat-26, pancreatic cancer): 93 % TGI
- Antitumor Activity (% TGI) ([12]; Pat-34, ovarian cancer): 89 % TGI
- Antitumor Activity (% TGI) ([12]; Pat-50, ovarian cancer): 91 % TGI
- Antitumor Activity (% TGI) ([12]; SK-N-AS, neuroblastoma): 67 % TGI
- Antitumor Activity (% TGI) ([12]; U-87, glioblastoma multiforme (GBM)): 82 % TGI
- antitumor activity [12]: showed antitumor activity
- human cancer xenografts in which significant antitumor activity was demonstrated ([12]; xenografts grown in mice): 16

SMILES: NC(=O)[C@@H](CCC(F)(F)F)[C@@H](CCC(F)(F)F)C(=O)N[C@H]1N=C(c2ccccc2)c2ccccc2NC1=O [Example 2, (2R,3S)—N-((3S)-2-Oxo-5-phenyl-2,3-dihydro-1H-1,4-benzodiazepin-3-yl)-2,3-bis(3,3,3-trifluoropropyl)succinamide]
- IC50 [4, 20]: 1.7 nM
- IC50 [5, 21]: 3.3 nM
- 0.5 μM HLM (% Remaining) [6, 22]: 88%
- 0.5 μM MsLM (% Remaining) [7, 23]: 86%
- Antitumor Activity TALL1 (LCK) ([8]; 24 mg/kg): 2.4 LCK
- Antitumor Activity MDA-MB-157 (% TGI) ([9]; 24 mg/kg): 85 % TGI
- Antitumor Activity MDA-MB-468 (% TGI) ([10]; single agent, 24 mg/kg): 87 % TGI
- antitumor activity [12]: showed antitumor activity

SMILES: COCCNc1cccc2c1NC(=O)[C@@H](NC(=O)[C@H](CCC(F)(F)F)[C@H](CCC(F)(F)F)C(N)=O)N=C2c1ccccc1 [Example 21, (2R,3S)—N-((3S)-9-((2-Methoxyethyl)amino)-2-oxo-5-phenyl-2,3-dihydro-1H-1,4-benzodiazepin-3-yl)-2,3-bis(3,3,3-trifluoropropyl)succinamide]
- IC50 [4, 20]: 1.5 nM
- IC50 [5, 21]: 4.2 nM
- 0.5 μM HLM (% Remaining) [6, 22]: 98%
- 0.5 μM MsLM (% Remaining) [7, 23]: 82%

SMILES: CC(=O)O[C@H]1C(=O)[C@@]2(C)[C@H]([C@H](OC(=O)c3ccccc3)[C@]3(O)C[C@H](OC(=O)[C@H](O)[C@@H](NC(=O)c4ccccc4)c4ccccc4)C(C)=C1C3(C)C)[C@]1(OC(C)=O)CO[C@@H]1C[C@@H]2O [Paclitaxel, paclitaxel, reference compound]
- CR (%) [10, 24]: 0%
- PR (%) [10, 24]: 0%
- Tumor Growth Delay [10, 24]: 7.8 days
- Tumor Growth Delay (LCK) [10, 24]: 0.5 LCK
- antitumor effect (LCK) ([10]; paclitaxel weekly, 12 mg/kg/adm): 0.5 LCK

SMILES: CC/C(=C(\c1ccccc1)c1ccc(OCCN(C)C)cc1)c1ccccc1 [Tamoxifen, reference compound]
- CR (%) [11, 25]: 0%
- PR (%) [11, 25]: 0%
- Tumor Growth Inhibition TGI [11, 25]: 78%
- % TGI ([11]; Tamoxifen at MTD dose of 20 mg/kg/adm, IP, Q2 DX12): 78%
- CR or PR ([11]; single agent): no CR or PR
